Experimental data taken from ChEMBL document CHEMBL3988442, “University of Dundee, Small-Polar-MMV Screening Library” (2021).
Where “and” joins values, the source holds several entries; their conditions need not be identical. Equal entries are not always repeated.

Legend:
[1] = tested on: Mycobacterium tuberculosis; test: Cornell M. t heat shock assay; assay type: functional, organism-based; conditions: for IC50: Mycobacterium tuberculosis
Lysine--tRNA ligase = Lysine--tRNA ligase (Plasmodium falciparum (isolate 3D7), UniProt Q8IDJ8); test: Pf-KRS-1 (Lysyl-RNA Synthetase-1, KRS-1, cytosolic KRS) from Plasmodium falciparum. Inhibitor assay, 384 well plate, luminescence read.; assay type: functional
Lysine--tRNA ligase, sequence (Q8IDJ8 whole entry): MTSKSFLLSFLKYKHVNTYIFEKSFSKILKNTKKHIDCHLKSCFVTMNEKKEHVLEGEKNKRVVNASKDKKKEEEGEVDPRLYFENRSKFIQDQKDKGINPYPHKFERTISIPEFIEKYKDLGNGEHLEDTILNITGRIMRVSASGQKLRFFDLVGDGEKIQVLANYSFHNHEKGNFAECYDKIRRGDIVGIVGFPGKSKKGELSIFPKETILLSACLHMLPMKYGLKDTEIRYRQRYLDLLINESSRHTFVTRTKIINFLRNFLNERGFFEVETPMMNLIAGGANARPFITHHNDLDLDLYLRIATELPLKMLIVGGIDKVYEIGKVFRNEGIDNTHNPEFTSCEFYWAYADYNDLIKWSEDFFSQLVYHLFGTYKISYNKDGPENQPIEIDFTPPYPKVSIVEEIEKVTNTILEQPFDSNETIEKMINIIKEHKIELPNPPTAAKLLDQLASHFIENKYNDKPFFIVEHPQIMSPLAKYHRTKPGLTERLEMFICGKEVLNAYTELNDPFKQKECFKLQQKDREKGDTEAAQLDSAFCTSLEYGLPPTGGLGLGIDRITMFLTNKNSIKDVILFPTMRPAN

Histidine--tRNA ligase = biological target: T1, Histidine--tRNA ligase (Leishmania infantum, UniProt A4I591); test: Leishmania infantum Histidine tRNA synthetase (LdHisRS); assay type: functional
T1 sequence (A4I591 whole entry): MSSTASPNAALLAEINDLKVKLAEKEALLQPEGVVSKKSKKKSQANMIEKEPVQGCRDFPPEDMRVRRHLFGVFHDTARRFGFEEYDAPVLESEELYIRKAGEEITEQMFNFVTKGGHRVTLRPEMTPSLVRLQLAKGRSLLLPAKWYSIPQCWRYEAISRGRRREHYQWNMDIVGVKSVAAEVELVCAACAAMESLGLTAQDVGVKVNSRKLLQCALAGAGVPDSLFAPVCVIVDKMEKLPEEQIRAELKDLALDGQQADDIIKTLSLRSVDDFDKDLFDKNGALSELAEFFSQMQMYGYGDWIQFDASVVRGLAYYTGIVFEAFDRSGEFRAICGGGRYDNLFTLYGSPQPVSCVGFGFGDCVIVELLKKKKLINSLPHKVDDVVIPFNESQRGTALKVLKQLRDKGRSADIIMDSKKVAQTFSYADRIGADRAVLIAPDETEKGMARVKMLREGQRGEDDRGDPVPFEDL

Wolbachia pipientis = test: Anti-Wolbachia Cell-Based Screen; assay type: functional; conditions: for IC50: Wolbachia pipientis
[2] = microbe, parasite or virus in culture; conditions: Mycobacterium tuberculosis, 96 h, read-out: pIC50 (converted)
[3] = microbe, parasite or virus in culture; conditions: Mycobacterium tuberculosis, 72 h, read-out: pIC50 (converted)
Schistosoma mansoni = test: High throughput screening of compounds against Schistosoma mansoni motility; assay type: functional; set-up: dose or concentration left out as unconfirmed
[4] = biological target: Polyketide synthase Pks13 (Mycobacterium tuberculosis (strain ATCC 25618 / H37Rv), UniProt I6X8D2); test: Mycobacterium tuberculosis Polyketide synthase 13 Thioesterase (PKS13); assay type: functional
Polyketide synthase Pks13, sequence (I6X8D2 whole entry): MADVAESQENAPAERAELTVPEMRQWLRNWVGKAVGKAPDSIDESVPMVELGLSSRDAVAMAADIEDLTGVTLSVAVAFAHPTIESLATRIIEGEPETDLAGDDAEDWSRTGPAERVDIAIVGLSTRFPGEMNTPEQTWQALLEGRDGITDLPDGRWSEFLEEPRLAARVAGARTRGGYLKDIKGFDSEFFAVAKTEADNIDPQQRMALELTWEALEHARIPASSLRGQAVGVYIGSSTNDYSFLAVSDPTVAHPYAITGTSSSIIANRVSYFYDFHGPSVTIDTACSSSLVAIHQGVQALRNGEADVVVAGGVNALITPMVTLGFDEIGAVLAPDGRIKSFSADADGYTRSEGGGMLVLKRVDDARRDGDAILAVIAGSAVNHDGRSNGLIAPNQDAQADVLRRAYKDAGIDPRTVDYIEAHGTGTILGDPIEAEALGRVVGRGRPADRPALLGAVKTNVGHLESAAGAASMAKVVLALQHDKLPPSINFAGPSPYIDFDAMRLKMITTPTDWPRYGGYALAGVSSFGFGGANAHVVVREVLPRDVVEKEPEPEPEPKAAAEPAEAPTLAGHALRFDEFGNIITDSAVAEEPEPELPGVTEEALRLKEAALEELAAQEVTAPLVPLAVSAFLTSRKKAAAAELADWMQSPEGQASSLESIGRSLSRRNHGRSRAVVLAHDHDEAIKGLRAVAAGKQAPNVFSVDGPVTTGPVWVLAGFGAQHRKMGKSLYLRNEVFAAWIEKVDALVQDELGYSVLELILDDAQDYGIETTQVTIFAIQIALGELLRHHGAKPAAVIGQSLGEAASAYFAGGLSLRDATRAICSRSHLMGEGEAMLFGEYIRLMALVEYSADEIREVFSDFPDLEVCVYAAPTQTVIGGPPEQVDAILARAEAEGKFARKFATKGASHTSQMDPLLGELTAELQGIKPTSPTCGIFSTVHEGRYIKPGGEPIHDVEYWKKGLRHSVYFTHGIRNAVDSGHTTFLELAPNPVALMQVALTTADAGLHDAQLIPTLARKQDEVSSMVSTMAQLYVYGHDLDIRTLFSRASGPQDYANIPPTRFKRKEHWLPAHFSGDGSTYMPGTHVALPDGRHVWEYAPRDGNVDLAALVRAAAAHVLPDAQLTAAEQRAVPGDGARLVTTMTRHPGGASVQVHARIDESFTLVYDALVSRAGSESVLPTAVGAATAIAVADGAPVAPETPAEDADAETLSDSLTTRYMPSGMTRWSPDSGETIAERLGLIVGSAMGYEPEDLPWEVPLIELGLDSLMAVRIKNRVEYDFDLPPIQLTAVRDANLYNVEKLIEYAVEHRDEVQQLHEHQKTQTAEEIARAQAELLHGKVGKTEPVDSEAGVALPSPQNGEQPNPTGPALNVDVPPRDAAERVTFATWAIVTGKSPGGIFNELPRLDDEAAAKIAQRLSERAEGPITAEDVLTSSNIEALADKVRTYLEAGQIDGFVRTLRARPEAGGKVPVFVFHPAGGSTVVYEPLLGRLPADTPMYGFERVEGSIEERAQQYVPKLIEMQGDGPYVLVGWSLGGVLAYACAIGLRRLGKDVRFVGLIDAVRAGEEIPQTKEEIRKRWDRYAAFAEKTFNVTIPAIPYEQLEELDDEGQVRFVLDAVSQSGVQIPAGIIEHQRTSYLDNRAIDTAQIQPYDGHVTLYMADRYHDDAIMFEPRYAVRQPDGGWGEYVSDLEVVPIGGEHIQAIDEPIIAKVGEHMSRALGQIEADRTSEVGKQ

ClpP1P2 = ClpP1P2 (Mycobacterium tuberculosis (strain ATCC 25618 / H37Rv), UniProt P9WPC3+P9WPC5); test: in vitro assay to detect presence of AMC directly proportional to the activity of ClpP1P2. GHDDI collaboration.; assay type: functional
ClpP1P2, sequence (P9WPC5 whole entry): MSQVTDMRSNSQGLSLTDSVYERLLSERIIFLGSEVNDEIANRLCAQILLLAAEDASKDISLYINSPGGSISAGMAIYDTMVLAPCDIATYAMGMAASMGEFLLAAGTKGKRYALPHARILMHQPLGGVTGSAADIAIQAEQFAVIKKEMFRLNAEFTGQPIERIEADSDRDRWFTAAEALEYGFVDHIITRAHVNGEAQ
ClpP1P2, sequence (P9WPC3 whole entry): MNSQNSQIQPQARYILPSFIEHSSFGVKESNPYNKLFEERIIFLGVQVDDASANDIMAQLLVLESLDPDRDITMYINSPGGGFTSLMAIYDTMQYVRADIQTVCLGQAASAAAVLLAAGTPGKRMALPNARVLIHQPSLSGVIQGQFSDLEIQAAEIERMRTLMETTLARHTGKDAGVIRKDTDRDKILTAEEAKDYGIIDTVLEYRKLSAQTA

Q: For `O=C(Cc1c[nH]c2ccccc12)N1CCC(Nc2ccccc2)CC1`, which IC50 [1] is on record?
A: Its IC50 is > 100 µM.

Q: Which IC50 [1] does the source give for `CCOc1ccccc1-c1cc(N)[nH]n1` here?
A: Its IC50 is 26.4 µM.

Q: With `Cc1cnn(CC2CCCN2Cc2nc3ccccc3c(=O)[nH]2)c1` (configuration not stated) as the compound, how does the IC50 [1] read?
A: The IC50 was 17.9 µM.

Q: For `Cc1cc(-c2cnc(N3CCCCCC3)nc2-c2cccnc2C)on1`, which pIC50 [1] is on record?
A: Its pIC50 is 4.097.

Q: What about the IC50 [1] of the same compound?
A: Its IC50 is 68.5 µM.

Q: For `CC(C)Oc1ncccc1CNC(=O)c1ccccn1`, which IC50 [1] is on record?
A: The IC50 was > 100 µM.

Q: For `O=C(Nc1nc2c(s1)CNCC2)NC1CCCC1`, which IC50 [1] is on record?
A: The IC50 was > 100 µM.

Q: With `Cc1cc(C)cc(CNC(c2ccccc2)c2nccn2C)c1` (configuration not stated) as the compound, how does the IC50 [1] read?
A: The IC50 was 4.29 µM.

Q: Which results are given for `Cc1ccc(O)c(CN(CCCn2ccnc2)Cc2ccc(C)s2)c1.O=C(O)CC(O)(CC(=O)O)C(=O)O`?
A: pIC50 [1]: 4.427; IC50 [1]: 42.9 µM

Q: With `CNC(=O)C1(C)CN(Cc2cn(C)c3ccc(F)cc23)CCO1` (configuration not stated) as the compound, how does the IC50 [1] read?
A: Its IC50 is > 100 µM.

Q: Which IC50 (Lysine--tRNA ligase) does the source give for `COc1ccc(CC(=O)N(C)c2cccnc2N(C)C)c(Cl)c1` here?
A: Its IC50 is > 50.1 µM.

Q: What about the IC50 (Histidine--tRNA ligase) of the same compound?
A: The IC50 was 19.4 µM and 16.5 µM.

Q: What about the pIC50 (Wolbachia pipientis) of the same compound?
A: Its pIC50 is 5.287.

Q: And the IC50 (Wolbachia pipientis)?
A: Its IC50 is 4.83 µM.

Q: Which IC50 [1] does the source give for `CSc1ccc(CNC(c2ccc(F)cc2)c2nccn2C)cc1` (configuration not stated) here?
A: Its IC50 is 32.5 µM.

Q: With `O=c1[nH]c(CCN2CCCC2Cn2cncn2)nc2ccccc12` (configuration not stated) as the compound, how does the IC50 [1] read?
A: Its IC50 is 34.3 µM.

Q: With `Cc1cc(NCc2ccco2)nc2[nH]nc(N)c12` as the compound, how does the IC50 [1] read?
A: The IC50 was > 100 µM.

Q: Which IC50 [1] does the source give for `CC(C)c1nc(N2CCC(N3CCCCCC3)CC2)c2cnn(C)c2n1` here?
A: The IC50 was 52.5 µM.

Q: With `c1nnc(Nc2cncc(C3CCCN3)n2)s1` (configuration not stated) as the compound, how does the IC50 [1] read?
A: The IC50 was 6.43 µM.

Q: For `CCC(=O)N1CCN(C(=O)Cn2cccn2)CC1`, which IC50 [1] is on record?
A: Its IC50 is 22.2 µM.

Q: For `CN1CCN(C(=O)c2cnsn2)c2ccc(F)cc21`, which IC50 [1] is on record?
A: The IC50 was 67.4 µM.

Q: With `COc1ccc(CNC(Cc2ccsc2)c2ncccc2C)cc1OC` (configuration not stated) as the compound, how does the IC50 [1] read?
A: The IC50 was > 49 µM.

Q: With `Cc1nc(-c2ccccc2)cc2nn(CC(N)=O)c(=O)n12` as the compound, how does the IC50 [1] read?
A: Its IC50 is > 100 µM.

Q: For `CSc1ccc(CNC(c2ccccc2F)c2nccn2C)cc1` (configuration not stated), which IC50 [1] is on record?
A: Its IC50 is 16.4 µM.

Q: Which IC50 [1] does the source give for `Cc1cc(-c2cnc(NCc3ccccn3)nc2C(C)C)on1` here?
A: The IC50 was > 100 µM.

Q: With `CCOC(=O)C(C)Nc1cccc(COCc2ccco2)c1` (configuration not stated) as the compound, how does the IC50 [1] read?
A: Its IC50 is > 100 µM.

Q: Which IC50 (Histidine--tRNA ligase) does the source give for `CCNc1cc2c(nn1)CCN(C(=O)c1ccnc(C)n1)C2` here?
A: The IC50 was 58.6 µM and 51.7 µM.

Q: What about the IC50 (Wolbachia pipientis) of the same compound?
A: The IC50 was > 10 µM.

Q: With `CO[C@@H]1CCN(c2nnc(C)s2)C[C@@H]1Cc1ccccc1.O=C(O)C(F)(F)F` as the compound, how does the pIC50 (Wolbachia pipientis) read?
A: Its pIC50 is 6.169.

Q: And the IC50 (Wolbachia pipientis)?
A: The IC50 was 0.958 µM.

Q: What about the IC50 [2] of the same compound?
A: Its IC50 is 7.95 µM.

Q: What about the IC50 [3] of the same compound?
A: Its IC50 is 11.3 µM.

Q: For `CNc1cc(C)nc(N2Cc3cnn(Cc4ccc(F)cc4)c3C2)n1`, which pIC50 (Wolbachia pipientis) is on record?
A: The pIC50 was 6.156.

Q: And the IC50 (Wolbachia pipientis)?
A: Its IC50 is 0.556 µM.

Q: And the IC50 [2]?
A: The IC50 was 24.2 µM.

Q: What about the IC50 [3] of the same compound?
A: Its IC50 is 33.6 µM.

Q: With `Cc1ccc(CN2CCn3c(CNC(=O)c4cccn4C)cnc3C2)s1` as the compound, how does the IC50 (Histidine--tRNA ligase) read?
A: The IC50 was 64.8 µM and 62.5 µM.

Q: And the IC50 (Wolbachia pipientis)?
A: Its IC50 is > 10 µM.

Q: With `N#Cc1ccc(N2CCCC3(CCN(c4cccnc4)CC3)C2)cc1.O=C(O)C(F)(F)F` as the compound, how does the IC50 (Histidine--tRNA ligase) read?
A: The IC50 was 24.6 µM and 24.2 µM.

Q: And the pIC50 (Wolbachia pipientis)?
A: The pIC50 was 6.279 and 5.873.

Q: For `O=C(O)C(F)(F)F.c1cc(-c2ccc3c(c2)CCC32CCN(c3nncs3)CC2)ccn1`, which IC50 (Histidine--tRNA ligase) is on record?
A: Its IC50 is 19.6 µM and 24.9 µM.

Q: And the pIC50 (Wolbachia pipientis)?
A: The pIC50 was 5.133.

Q: What about the IC50 (Wolbachia pipientis) of the same compound?
A: Its IC50 is 5.68 µM.

Q: With `COc1ccc(C[C@H]2CN(c3nnc(C)s3)CC[C@H]2OC)cc1.O=C(O)C(F)(F)F` as the compound, how does the pIC50 (Wolbachia pipientis) read?
A: Its pIC50 is 6.226.

Q: And the IC50 (Wolbachia pipientis)?
A: Its IC50 is 0.462 µM.

Q: What about the IC50 [2] of the same compound?
A: Its IC50 is 16.4 µM.

Q: What about the IC50 [3] of the same compound?
A: Its IC50 is 16.3 µM.

Q: For `CN(Cc1ccc(F)cc1)CC1(O)CCCN(CC(C)(C)C)C1=O` (configuration not stated), which “Percent Effect” value (Schistosoma mansoni) is on record?
A: Its value is 7.085%.

Q: And the IC50 (Wolbachia pipientis)?
A: The IC50 was > 10 µM.

Q: Which results are given for `Cc1csc(CN(C)c2cc(C)nc3c(C)c(C)nn23)n1`?
A: pIC50 (Wolbachia pipientis): 5.234; IC50 (Wolbachia pipientis): 6.27 µM; IC50 [2]: 25.5 µM; IC50 [3]: 37.9 µM

Q: Which pIC50 (Wolbachia pipientis) does the source give for `CO[C@H]1CCN(c2nnc(C)s2)C[C@@H]1Cc1ccccc1.O=C(O)C(F)(F)F` here?
A: Its pIC50 is 5.449.

Q: And the IC50 (Wolbachia pipientis)?
A: The IC50 was 3.77 µM.

Q: What about the IC50 [2] of the same compound?
A: Its IC50 is 15.7 µM.

Q: What about the IC50 [3] of the same compound?
A: The IC50 was 40.3 µM.

Q: With `CCn1cc(-c2cc(-c3cc(CN(C)C)cs3)nc(N)c2C#N)c(C)n1` as the compound, how does the IC50 [4] read?
A: Its IC50 is 24.7 µM and 11 µM.

Q: And the IC50 (ClpP1P2)?
A: Its IC50 is > 100 µM.

Q: What about the IC50 (Wolbachia pipientis) of the same compound?
A: The IC50 was > 10 µM.

Q: Which IC50 [4] does the source give for `O=C1[C@H]2CC[C@H](CN(c3ncnc4ccsc34)C2)N1CC1CC1` here?
A: Its IC50 is > 100 µM.

Q: And the pIC50 (Wolbachia pipientis)?
A: The pIC50 was 5.348.

Q: And the IC50 (Wolbachia pipientis)?
A: Its IC50 is 5.55 µM.

Q: What about the IC50 [2] of the same compound?
A: Its IC50 is > 50.1 µM.

Q: And the IC50 [3]?
A: The IC50 was > 50.1 µM.

Q: Which “Percent Effect” value (Schistosoma mansoni) does the source give for `CSCC[C@H](N)C(=O)NCc1cc2n(n1)CCCN(C(=O)C1CCC1)C2` here?
A: Its value is -28.36%.

Q: What about the IC50 (Wolbachia pipientis) of the same compound?
A: Its IC50 is > 10 µM.

Q: For `CO[C@@H]1CCN(c2nnc(C)s2)C[C@@H]1Cc1cccc(C)c1.O=C(O)C(F)(F)F`, which pIC50 (Wolbachia pipientis) is on record?
A: Its pIC50 is 5.813.

Q: What about the IC50 (Wolbachia pipientis) of the same compound?
A: Its IC50 is 1.57 µM.

Q: What about the IC50 [2] of the same compound?
A: Its IC50 is 16.3 µM.

Q: What about the IC50 [3] of the same compound?
A: Its IC50 is 41.6 µM.
